Experimental data: patent publication US7261906B2, “Anti-cancer therapy agent of arsenic hexoxide (As4O6) of a natural chemical substance and its pharmaceutical composition” (priority 1998, dated 2007)

Experiment: Acute toxicity, single oral administration
Type: in vivo, Rats (Sprague Dawley strain)
Details: for Mortality, Days after treatment 1 / Mortality, Days after treatment 2 / Mortality, Days after treatment 3 / Mortality, Days after treatment 4 / Mortality, Days after treatment 5 / Mortality, Days after treatment 6 / Mortality, Days after treatment 7 / Mortality, Days after treatment 8 / Mortality, Days after treatment 9 / Mortality, Days after treatment 10 / Mortality, Days after treatment 11 / Mortality, Days after treatment 12 / Mortality, Days after treatment 13 / Mortality, Days after treatment 14 / Mortality, Hours after treatment 1 / Mortality, Hours after treatment 2 / Mortality, Hours after treatment 3 / Mortality, Hours after treatment 4 / Mortality, Hours after treatment 5 / Mortality, Hours after treatment 6 / Final mortality / Final mortality (dead/total): Female; for Final mortality / Final mortality (dead/total): 14 days; for LD50 (50% Lethal Dose): oral administration
Description: The acute toxicity of oral administration of HD-2 was evaluated according to toxicity assessment criteria described in Article 96-8 of Notice on Food and Drug Safety (Apr. 16, 1994). Rats (Sprague Dawley strain) were used for animal experiments. Dosage of a single, oral administration ranged from 0.4 to 1.25 g/kg body weight in male rats and 0.4 to […] body weight in female rats. General conditions of the animals, toxic symptoms, and mortality were measured every hour for the initial 6 hours following the single administration and once a day afterwards for 14 days. Body weights were measured before starting the study, 7 days after the administration, and at autopsy. Expired rats were studied to find the cause of death at autopsy. […] Some rats manifesting these clinical symptoms expired, but others recovered to normal condition within 2 to 3 days of clinical symptoms.

SMILES: O1[As]2O[As]3O[As]1O[As](O2)O3 [HD-2, arsenic hexoxide (As4O6)]
- Mortality, Days after treatment 1 (0.4 g/kg B.W. oral): 0
- Mortality, Days after treatment 2 (0.4 g/kg B.W. oral): 0
- Mortality, Days after treatment 3 (0.4 g/kg B.W. oral): 0
- Mortality, Days after treatment 4 (0.4 g/kg B.W. oral): 0
- Mortality, Days after treatment 5 (0.4 g/kg B.W. oral): 0
- Mortality, Days after treatment 6 (0.4 g/kg B.W. oral): 0
- Mortality, Days after treatment 7 (0.4 g/kg B.W. oral): 0
- Mortality, Days after treatment 8 (0.4 g/kg B.W. oral): 0
- Mortality, Days after treatment 9 (0.4 g/kg B.W. oral): 0
- Mortality, Days after treatment 10 (0.4 g/kg B.W. oral): 0
- Mortality, Days after treatment 11 (0.4 g/kg B.W. oral): 0
- Mortality, Days after treatment 12 (0.4 g/kg B.W. oral): 0
- Mortality, Days after treatment 13 (0.4 g/kg B.W. oral): 0
- Mortality, Days after treatment 14 (0.4 g/kg B.W. oral): 0
- Mortality, Hours after treatment 1 (0.4 g/kg B.W. oral): 0
- Mortality, Hours after treatment 2 (0.4 g/kg B.W. oral): 0
- Mortality, Hours after treatment 3 (0.4 g/kg B.W. oral): 0
- Mortality, Hours after treatment 4 (0.4 g/kg B.W. oral): 0
- Mortality, Hours after treatment 5 (0.4 g/kg B.W. oral): 0
- Mortality, Hours after treatment 6 (0.4 g/kg B.W. oral): 0
- Final mortality (0.4 g/kg B.W. oral): 0%
- Final mortality (dead/total) (0.4 g/kg B.W. oral): 0/5
- Mortality, Days after treatment 1 (0.5 g/kg B.W. oral): 0
- Mortality, Days after treatment 2 (0.5 g/kg B.W. oral): 0
- Mortality, Days after treatment 3 (0.5 g/kg B.W. oral): 0
- Mortality, Days after treatment 4 (0.5 g/kg B.W. oral): 0
- Mortality, Days after treatment 5 (0.5 g/kg B.W. oral): 0
- Mortality, Days after treatment 6 (0.5 g/kg B.W. oral): 0
- Mortality, Days after treatment 7 (0.5 g/kg B.W. oral): 0
- Mortality, Days after treatment 8 (0.5 g/kg B.W. oral): 0
- Mortality, Days after treatment 9 (0.5 g/kg B.W. oral): 0
- Mortality, Days after treatment 10 (0.5 g/kg B.W. oral): 0
- Mortality, Days after treatment 11 (0.5 g/kg B.W. oral): 0
- Mortality, Days after treatment 12 (0.5 g/kg B.W. oral): 0
- Mortality, Days after treatment 13 (0.5 g/kg B.W. oral): 0
- Mortality, Days after treatment 14 (0.5 g/kg B.W. oral): 0
- Mortality, Hours after treatment 1 (0.5 g/kg B.W. oral): 0
- Mortality, Hours after treatment 2 (0.5 g/kg B.W. oral): 0
- Mortality, Hours after treatment 3 (0.5 g/kg B.W. oral): 0
- Mortality, Hours after treatment 4 (0.5 g/kg B.W. oral): 0
- Mortality, Hours after treatment 5 (0.5 g/kg B.W. oral): 0
- Mortality, Hours after treatment 6 (0.5 g/kg B.W. oral): 0
- Final mortality (0.5 g/kg B.W. oral): 0%
- Final mortality (dead/total) (0.5 g/kg B.W. oral): 0/5
- Mortality, Days after treatment 1 (0.58 g/kg B.W. oral): 1
- Mortality, Days after treatment 2 (0.58 g/kg B.W. oral): 1
- Mortality, Days after treatment 3 (0.58 g/kg B.W. oral): 0
- Mortality, Days after treatment 4 (0.58 g/kg B.W. oral): 0
- Mortality, Days after treatment 5 (0.58 g/kg B.W. oral): 0
- Mortality, Days after treatment 6 (0.58 g/kg B.W. oral): 0
- Mortality, Days after treatment 7 (0.58 g/kg B.W. oral): 0
- Mortality, Days after treatment 8 (0.58 g/kg B.W. oral): 0
- Mortality, Days after treatment 9 (0.58 g/kg B.W. oral): 0
- Mortality, Days after treatment 10 (0.58 g/kg B.W. oral): 0
- Mortality, Days after treatment 11 (0.58 g/kg B.W. oral): 0
- Mortality, Days after treatment 12 (0.58 g/kg B.W. oral): 0
- Mortality, Days after treatment 13 (0.58 g/kg B.W. oral): 0
- Mortality, Days after treatment 14 (0.58 g/kg B.W. oral): 0
- Mortality, Hours after treatment 1 (0.58 g/kg B.W. oral): 0
- Mortality, Hours after treatment 2 (0.58 g/kg B.W. oral): 0
- Mortality, Hours after treatment 3 (0.58 g/kg B.W. oral): 0
- Mortality, Hours after treatment 4 (0.58 g/kg B.W. oral): 0
- Mortality, Hours after treatment 5 (0.58 g/kg B.W. oral): 0
- Mortality, Hours after treatment 6 (0.58 g/kg B.W. oral): 0
- Final mortality (0.58 g/kg B.W. oral): 40%
- Final mortality (dead/total) (0.58 g/kg B.W. oral): 2/5
- Mortality, Days after treatment 1 (0.62 g/kg B.W. oral): 3
- Mortality, Days after treatment 2 (0.62 g/kg B.W. oral): 1
- Mortality, Days after treatment 3 (0.62 g/kg B.W. oral): 0
- Mortality, Days after treatment 4 (0.62 g/kg B.W. oral): 0
- Mortality, Days after treatment 5 (0.62 g/kg B.W. oral): 0
- Mortality, Days after treatment 6 (0.62 g/kg B.W. oral): 0
- Mortality, Days after treatment 7 (0.62 g/kg B.W. oral): 0
- Mortality, Days after treatment 8 (0.62 g/kg B.W. oral): 0
- Mortality, Days after treatment 9 (0.62 g/kg B.W. oral): 0
- Mortality, Days after treatment 10 (0.62 g/kg B.W. oral): 0
- Mortality, Days after treatment 11 (0.62 g/kg B.W. oral): 0
- Mortality, Days after treatment 12 (0.62 g/kg B.W. oral): 0
- Mortality, Days after treatment 13 (0.62 g/kg B.W. oral): 0
- Mortality, Days after treatment 14 (0.62 g/kg B.W. oral): 0
- Mortality, Hours after treatment 1 (0.62 g/kg B.W. oral): 0
- Mortality, Hours after treatment 2 (0.62 g/kg B.W. oral): 0
- Mortality, Hours after treatment 3 (0.62 g/kg B.W. oral): 0
- Mortality, Hours after treatment 4 (0.62 g/kg B.W. oral): 0
- Mortality, Hours after treatment 5 (0.62 g/kg B.W. oral): 0
- Mortality, Hours after treatment 6 (0.62 g/kg B.W. oral): 0
- Final mortality (0.62 g/kg B.W. oral): 80%
- Final mortality (dead/total) (0.62 g/kg B.W. oral): 4/5
- Mortality, Days after treatment 1 (0.625 g/kg B.W. oral): 1
- Mortality, Days after treatment 2 (0.625 g/kg B.W. oral): 0
- Mortality, Days after treatment 3 (0.625 g/kg B.W. oral): 0
- Mortality, Days after treatment 4 (0.625 g/kg B.W. oral): 0
- Mortality, Days after treatment 5 (0.625 g/kg B.W. oral): 0
- Mortality, Days after treatment 6 (0.625 g/kg B.W. oral): 0
- Mortality, Days after treatment 7 (0.625 g/kg B.W. oral): 0
- Mortality, Days after treatment 8 (0.625 g/kg B.W. oral): 0
- Mortality, Days after treatment 9 (0.625 g/kg B.W. oral): 0
- Mortality, Days after treatment 10 (0.625 g/kg B.W. oral): 0
- Mortality, Days after treatment 11 (0.625 g/kg B.W. oral): 0
- Mortality, Days after treatment 12 (0.625 g/kg B.W. oral): 0
- Mortality, Days after treatment 13 (0.625 g/kg B.W. oral): 0
- Mortality, Days after treatment 14 (0.625 g/kg B.W. oral): 0
- Mortality, Hours after treatment 1 (0.625 g/kg B.W. oral): 0
- Mortality, Hours after treatment 2 (0.625 g/kg B.W. oral): 0
- Mortality, Hours after treatment 3 (0.625 g/kg B.W. oral): 0
- Mortality, Hours after treatment 4 (0.625 g/kg B.W. oral): 0
- Mortality, Hours after treatment 5 (0.625 g/kg B.W. oral): 0
- Mortality, Hours after treatment 6 (0.625 g/kg B.W. oral): 0
- Final mortality (0.625 g/kg B.W. oral): 100%
- Final mortality (dead/total) (0.625 g/kg B.W. oral): 5/5
- Changes in weight vs control group (all subgroups of different dosages): did not show any significant difference
- LD50 (50% Lethal Dose) (female rats): 0.58 g/kg body weight
- LD50 (50% Lethal Dose) (male rats): 0.81 g/kg body weight
